What all share (format): binding
One assay deals with T1, ApoE2 (Homo sapiens, UniProt P02649, R176C).
T1 construct: gene APOE; His6-thioredoxin tag removed by HRV 3C protease; E. coli Rosetta2(DE3)
As to the kind of experiment: isothermal titration calorimetry (protein injected into compound). The text has this: isothermal titration calorimetry (protein injected into compound) on ApoE2
On the technique in general: Isothermal titration calorimetry measures the heat released or taken up as one component is titrated into another.

The target in the next assay is T2, ApoE3 (Homo sapiens, UniProt P02649).
T2 construct: gene APOE; His6-thioredoxin tag removed by HRV 3C protease; E. coli Rosetta2(DE3)
The assay is described as above. The text has this: isothermal titration calorimetry (protein injected into compound) on ApoE3

The target of assay [1] is T3, ApoE4 (Homo sapiens, UniProt P02649, C130R).
T3 construct: gene APOE; full-length mature ApoE4, codon-optimized gene in pET17b; His6-thioredoxin tag removed by HRV 3C protease; E. coli Rosetta2(DE3)
Described as above.

Assay [2] concerns the target T3, ApoE4. As to the kind of experiment: microscale thermophoresis (Red-NHS labelled ApoE4, initial fluorescence). The text has this:
microscale thermophoresis (Red-NHS labelled ApoE4, initial fluorescence) on ApoE4

T1 sequence (P02649 19-317 R176C): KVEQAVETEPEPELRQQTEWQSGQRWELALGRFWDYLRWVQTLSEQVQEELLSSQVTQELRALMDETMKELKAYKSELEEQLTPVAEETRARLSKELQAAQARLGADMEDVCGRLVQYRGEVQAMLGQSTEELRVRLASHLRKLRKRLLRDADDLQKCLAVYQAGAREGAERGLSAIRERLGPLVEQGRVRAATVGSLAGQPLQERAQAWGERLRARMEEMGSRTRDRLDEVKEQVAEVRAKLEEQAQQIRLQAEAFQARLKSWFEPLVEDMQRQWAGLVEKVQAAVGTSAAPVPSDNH
T3 sequence (P02649 19-317 C130R): as the sequence (P02649 19-317 R176C) above, with C112R, C158R counted along it
T2 sequence (P02649 19-317): as the sequence (P02649 19-317 R176C) above, with C158R counted along it

`O=C(O)c1cc2ccccc2c(Cc2c(O)c(C(=O)O)cc3ccccc23)c1O` [Pamoic acid]: the Kd turned out to be 55 ± 14 µM on ApoE2, 119 ± 50 µM on ApoE3 and 38 ± 4 µM at ApoE4 [1] (read-out: ApoE4).

For the compound `Cc1ccc(Cl)c(Nc2ccccc2C(=O)O)c1Cl` [Meclofenamic acid], the results for the Kd on ApoE2, on ApoE3 and at ApoE4 [1] (read-out: ApoE4) were 47 ± 32 µM, 47 ± 9 µM and 45 ± 13 µM, respectively.

For `Cc1ccc(C(=O)Nc2ccc(S(=O)(=O)O)c3cc(S(=O)(=O)O)cc(S(=O)(=O)O)c23)cc1NC(=O)c1cccc(NC(=O)Nc2cccc(C(=O)Nc3cc(C(=O)Nc4ccc(S(=O)(=O)O)c5cc(S(=O)(=O)O)cc(S(=O)(=O)O)c45)ccc3C)c2)c1` [Suramin], the Kd at ApoE4 [1] (read-out: binding affinity) amounted to 3 ± 0.4 µM.

Regarding `CC/C(=C(\c1ccccc1)c1ccc(OCCN(C)C)cc1)c1ccccc1` [Tamoxifen], the Kd at ApoE4 [2] came out at 67 ± 19 µM.

Consider `O=C(O)c1ccc2nc(-c3cc(Cl)cc(Cl)c3)oc2c1` [Tafamidis], for which the Kd is 6 ± 2 µM at ApoE2, 8 ± 1 µM at ApoE3 and 8 ± 2 µM on ApoE4 [1] (read-out: ApoE4).

Take `CCN(CC)CCOc1ccc(C(=C(Cl)c2ccccc2)c2ccccc2)cc1` [Clomifene]: the Kd on ApoE2 stood at 67 ± 36 µM; at ApoE3, 24 ± 9 µM; on ApoE4 [1] (read-out: ApoE4), 15 ± 10 µM.

As for `CN(C)CCOc1ccc(/C(=C(/CCCl)c2ccccc2)c2ccccc2)cc1` [Toremifene], on ApoE4 [2], the Kd turned out to be 44 ± 6 µM.

For the compound `N[C@@H](Cc1cc(I)c(Oc2cc(I)c(O)c(I)c2)c(I)c1)C(=O)O` [L-Thyroxine], the Kd on ApoE2 is 33 ± 10 µM; at ApoE3 it was 20 ± 3 µM; at ApoE4 [1] (read-out: ApoE4), 18 ± 12 µM.

For the origin of these results see paper PMC6406525, “A Biophysical Approach to the Identification of Novel ApoE Chemical Probes” (Biomolecules, 2019).
